In ChEMBL document CHEMBL6127107, “Oleanolic acid derivatives against drug-resistant bacteria and fungi by multi-targets to avoid drug resistance” (Eur J Med Chem, 2024):
Converted amounts (≈) assume the structure as drawn. The source made the active and inactive calls. No cut-off for these calls is given here.

Assays:
[1] = tested on: Staphylococcus aureus; assay: Antimicrobial activity against methicillin-resistant Staphylococcus aureus 003; format: functional
[2] = tested on: Staphylococcus aureus; assay: Antimicrobial activity against Staphylococcus aureus 10; format: functional
[3] = tested on: Candida albicans; assay: Antimicrobial activity against fluconazole-resistant Candida albicans; format: functional
[4] = tested on: Staphylococcus aureus; assay: Synergistic antibacterial activity against methicillin-resistant Staphylococcus aureus assessed as fractional inhibitory concentration index in presence of streptomycin; format: functional
[5] = tested on: Staphylococcus aureus; assay: Synergistic antibacterial activity against methicillin-resistant Staphylococcus aureus assessed as fractional inhibitory concentration index in presence of enrofloxacin; format: functional, organism-based
[6] = tested on: Staphylococcus aureus; assay: Antibiofilm activity against methicillin-resistant Staphylococcus aureus assessed as inhibition of biofilm formation at 2 times of MIC by crystal violet staining based analysis relative to control; format: functional
[7] = tested on: Cell membrane; assay: Disruption of cell membrane integrity in methicillin-resistant Staphylococcus aureus assessed as increase in PI fluorescence at 2 to 8 times of MIC by PI staining based fluorescence analysis; format: subcellular
[8] = tested on: Cell membrane; assay: Disruption of cell membrane integrity in Candida albicans; format: subcellular
[9] = tested on: Cell membrane; assay: Disruption of cell membrane integrity in methicillin-resistant Staphylococcus aureus assessed as nucleic acid leakage by absorbance based analysis; format: subcellular
[10] = tested on: Staphylococcus aureus; assay: Antimicrobial activity against methicillin-resistant Staphylococcus aureus in presence of peptidoglycan; format: functional, organism-based
[11] = tested on: DNA; assay: Binding affinity to methicillin-resistant Staphylococcus aureus DNA assessed as effect on helical structure by measuring change in positive and negative peaks at 10 to 40 microg/ml by CD spectra; format: nucleic-acid assay; settings: dose 10-40 µg/ml
[12] = tested on: DNA; assay: Binding affinity to methicillin-resistant Staphylococcus aureus DNA minor groove assessed as decrease in fluorescence by DAPI staining based analysis; format: nucleic-acid assay
[13] = tested on: Staphylococcus aureus; assay: Antibacterial activity against methicillin-resistant Staphylococcus aureus infected in cyclophosphamide-injected Kunming mouse model of skin wound infection assessed as wound repair by measuring reduction in wound area at 2 to 4 mg/kg measured for 7 days by photographic analysis; format: functional, organism-based; settings: dose 2-4 mg/kg, time 7.0 day
[14] = tested on: Staphylococcus aureus; assay: Antibacterial activity against methicillin-resistant Staphylococcus aureus infected in cyclophosphamide-injected Kunming mouse model of skin wound infection assessed as reduction in bacterial load in skin at 2 mg/kg measured after 7 days; format: functional; settings: time 7 day

## CC(=O)O[C@H]1CC[C@]2(C)[C@H]3CC=C4[C@@H]5CC(C)(C)CC[C@]5(C(=O)NCCCNC(=N)N)CC[C@@]4(C)[C@]3(C)CC[C@H]2C1(C)C
[1]
  MIC: 1 µg/mL (≈ 1.68 µM)
[2]
  MIC: 1 µg/mL (≈ 1.68 µM)
[3]
  MIC: 1 µg/mL (≈ 1.68 µM)
[4]
  Activity: Active
[5]
  Activity: Active
[6]
  inhibition (INH): >80%
[7]
  Activity: Active
[8]
  Activity: Active
[9]
  Activity: Active
[10]
  Activity: Active
[11]
  Activity: Active
[12]
  Activity: inactive
[13]
  Activity: Active
[14]
  Activity: 1.24 log10CFU/mg
